Laboratory results: patent US20100292306A1, “Compositions And Methods For The Treatment Of Muscular Dystrophy” (priority 2005, published 2010)
Entries after “also recorded” stand apart in the source; their conditions may differ.

Legend:
[1] = system: nuclear NF-κB activation; settings: long term treatment; Durham et al. (2006); cited from earlier work
[2] = system: nuclear NFκB; assay: EMSA of nuclear NFκB binding in costal diaphragm nuclear extracts after single injection; format: in vivo, mdx mice; settings: sulfasalazine 100 mg/kg ip single injection, 3 hours, mdx 3 to 3.5 months
Method: MDX mice aged 3 to 3.5 months were injected with either sulfasalazine (SS; 100 mg/kg, ip) or vehicle (HEPES Ringer; in mM: 147.5 NaCl, 5 KCl, 2 CaCl2, 11 glucose, 5 HEPES, pH 7.35) and euthanized at 3 hours post-injection. The costal diaphragms were removed and flash frozen before beginning the extract procedure. Nuclear and cytosolic extracts were obtained using a procedure slightly modified from that described in Carlson et al. (2005) and Kumar and Boriek (2003). […] Protein determinations were determined by the method of Lowry using bovine serum albumin standards (20 μg nuclear protein was added to each lane).
; in mM: 147.5 NaCl, 5 KCl, 2 CaCl2, 11 glucose, 5 HEPES, pH 7.35; 0.1% DMSO) and euthanized at 3 hours post-injection. […] Protein determinations were determined by the method of Lowry using bovine serum albumin standards (20 μg nuclear protein was added to each lane).

[3] = system: mdx TS muscle fibers; assay: Intracellular recording of resting membrane potential in TS muscle fibers after chronic treatment; format: in vivo, mdx mice; settings: sulfasalazine 100 mg/kg ip daily 68 days, vs vehicle littermate
[4] = system: IL1-β; assay: ELISA of IL1-β in cytosolic muscle extracts after single sulfasalazine injection; format: in vivo, mdx mice; settings: SS 100 mg/kg ip single injection, 3 hours
Source text: (§1) Each diaphragm was divided into costal and crural regions which were processed and analyzed separately. After determining protein concentrations for each of the cytosolic and nuclear extracts (Lowry assay), samples of each extract were used to obtain standard ELISA determinations of mouse TNFα, IL-6, and IL-1β using standard procedures (Assay Designs, Inc.). These particular NFκB products were chosen because of their role in the inflammatory reaction and previously published results indicating the presence of these cytokines in nondystrophic skeletal muscle homogenates (Molina et al., Neuroimmunomodulation, 4, 28-36, 1997; Jonsdottir et al., J. of Physiol. (Lond.), 528.1, 157-163, 2000; Lang et al., Shock, 19(6), 538-546, 2003).
(§2) MDX mice aged 3 to 3.5 months were injected with either SS (100 mg/kg) or vehicle (HEPES Ringer; in mM: 147.5 NaCl, 5 KCl, 2 CaCl2, 11 glucose, 5 HEPES, pH 7.35) and euthanized at 3 hours post-injection. The costal and crural diaphragms and the gastrocnemius muscle were then immediately removed and flash frozen before beginning the procedure to obtain nuclear and cytosolic extracts as described in Example 10. ELISA determinations of TNFα, Il1-β, and IL6 were determined as described in Example 9.

[5] = system: TNFα; assay: ELISA of TNFα in cytosolic muscle extracts after single sulfasalazine injection; format: in vivo, mdx mice; settings: mdx costal diaphragm; SS 100 mg/kg ip single injection, 3 hours
Source text: as §1, §2

[6] = Observation of viability, side effects and body weight during treatment
[7] = system: IL6; assay: ELISA of IL6 in cytosolic muscle extracts after single sulfasalazine injection; format: in vivo, mdx mice; settings: costal and crural diaphragms; SS 100 mg/kg ip single injection, 3 hours
Source text: as §1, §2

[8] = system: nondystrophic and mdx TS muscle fibers; assay: Effect of Gd^3+ on resting membrane potential of isolated TS muscle preparations; format: cell-based, mice
Method: The effect of the Ca^2+ channel blocker, Gd^3+, on the resting membrane potential was examined in both nondystrophic and mdx TS muscle preparations. Gd^3+ blocks both nonselective cation channels and more Ca^2+-selective leak channels (Franco et al., 1991 and Yang and Sachs, 1989) and, at concentrations of 20-100 μM, eliminates fluorometric determinations of resting Ca^2+ influx in a variety of cells (Broad et al., 1999, Carlson and Geisbuhler, 2003, Cox et al., 2002 and Samadi et al., 2005). […]
The potential effect of Gd^3+ on resting potential was determined in several nondystrophic (5-17 months) and mdx (5-11.5 months) TS preparations by first recording from several cells in normal HEPES Ringer solution, and then adding 100 μM GdCl3 to the solution while recording continuously from a single fiber. After removing the electrode from the fiber, the resting potential of several additional fibers were determined in the presence of the lanthanide. The average resting potential in nondystrophic fibers bathed in normal HEPES Ringer was −50.1±1.4 (SE) mV, a value lower than that recorded in this laboratory from nondystrophic diaphragm (−63±1.3 mV, N=98 fibers, 5 weeks to 2 years of age; Carlson and Roshek, 2001).

## COc1cc(/C=C/C(=O)CC(=O)/C=C/c2ccc(O)c(OC)c2)ccc1O [curcumin, diferuloylmethane]
[1]
  nuclear NF-κB activation in mdx costal diaphragm: did not reduce

## O=C(O)c1cc(/N=N/c2ccc(S(=O)(=O)Nc3ccccn3)cc2)ccc1O [sulfasalazine, Sulfasalazine]
[2]
  nuclear NFκB binding to consensus sequence / nuclear NF-kappaB activation: may reduce
[2]; listed as SS
  nuclear NFκB binding to consensus sequence / nuclear NF-kappaB activation: reduction
[3]
  resting potential of TS muscle fibers: significantly improves
[3]; listed as SS
  resting potential of TS muscle fibers: significantly improved
[4]
  expression of IL1-β in cytosolic extracts: did not reduce; also recorded: not influenced
[5]
  expression of TNFα in cytosolic extracts: reduced
[6]; SS 100 mg/kg ip daily 68 days
  body weight: maintained their body weight
  side-effects of chronic treatment schedule: no obvious side-effects
[6]; SS 100 mg/kg ip, aside from 5 to 10 sec restlessness
  side effects after injection: no obvious side effects
[7]
  expression of IL6 in cytosolic extracts: did reduce; also recorded: reduced

## [Cl][Gd]([Cl])[Cl] [Gd^3+, GdCl3]
[8]; 100 μM GdCl3, failed to reach statistical significance in nondystrophic or mdx
  change in resting potential, total sample of fibers: slight hyperpolarization
[8]; 100 μM GdCl3 added while recording from nondystrophic or mdx fibers
  effect on resting potential when added during recording: No effect
